One assay addresses Beta-galactosidase (Escherichia coli, UniProt Q8VNN2). Briefly: PubChem AID 485352. The format is functional.
The nature of assay [1]: NIH3T3 cell viability loss – ATP luminescence, mouse fibroblasts, counter-screen, dose response (AID 2010).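 Also: cells exposed to compound for about 90 hours before reading.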 The format is functional, cell-based.
Assay [2] concerns Streptococcus sp. 'group A'. Briefly: Streptococcus pyogenes SK(-)GAS viability under kanamycin – luminescence, BacTiterGlo, confirmation, counter-screen for streptokinase expression inhibitor project, dose response (AID 1900). The format is functional, organism-based. For orientation: A counterscreen serves to expose hits that act by an unwanted route or on another target.
Another assay deals with Streptococcus. Kind of assay: GAS UMAA2166 growth inhibition – luminescence, BacTiterGlo, counter-screen for streptokinase expression inhibitor project, dose response (AID 1915).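 Also: potency for reduction of bacterial viability or growth.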 In kind it is functional, organism-based.
For assay [3], the target named is T1, Type-1 angiotensin II receptor (Homo sapiens, UniProt P30556).
T1 sequence (P30556 whole entry): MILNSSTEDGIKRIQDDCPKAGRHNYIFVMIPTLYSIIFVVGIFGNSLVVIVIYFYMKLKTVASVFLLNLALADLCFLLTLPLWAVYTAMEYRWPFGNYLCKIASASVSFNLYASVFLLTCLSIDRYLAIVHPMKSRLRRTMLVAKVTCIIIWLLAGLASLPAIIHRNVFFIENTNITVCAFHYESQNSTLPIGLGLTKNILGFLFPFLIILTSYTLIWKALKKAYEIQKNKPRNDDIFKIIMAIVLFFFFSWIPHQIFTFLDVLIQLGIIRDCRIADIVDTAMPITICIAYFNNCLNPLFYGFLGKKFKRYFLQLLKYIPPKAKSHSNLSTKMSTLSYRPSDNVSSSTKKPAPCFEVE
Kind of assay: antagonism of angiotensin II type 1 receptor – cell-based, uHTS hits, selectivity assay for APJ receptor antagonist project, dose response (AID 463214).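 Also: antagonist potency against angiotensin II stimulated AT1 response.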 The format is functional.

Assay [4] has as its target DNA dC->dU-editing enzyme APOBEC-3G (Homo sapiens, UniProt Q9HC16). Kind of assay: Dose Response confirmation of small molecule APOBEC3G DNA Deaminase Inhibitors via a fluorescence-based single-stranded DNA deaminase assay. [Related pubchem assays (depositor defined):AID493012, AID493028]. The format is functional.
A short description of assay [5]: Trypanosoma cruzi growth suppression in host cells – NIH3T3 host cells, beta-gal luminescence, confirmation (AID 2044).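 Also: intracellular parasites grown in NIH/3T3 mouse fibroblasts as host cells; luminescent beta-galactosidase reporter signal from transgenic T. cruzi replicating inside host cells; inhibitors lower the luminescence signal.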 The format is functional, cell-based.
Another assay concerns INS1. Kind of assay: INS-1E survival protection against cytokine death – cell-based, luminescence, retest, dose response (AID 449756).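 Also: cell death triggered by IL-1 beta plus TNF-alpha plus IFN-gamma mixture; protective hits raise ATP signal compared with cytokine alone wells.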 In kind it is functional. The following applies: Rattus norvegicus.
For assay [6], the target named is Beta-2 adrenergic receptor (Homo sapiens, UniProt P07550). Briefly: ADRB2 activation measured by internalization – cell-based, FAP fluorogen, flow cytometry, cherry pick 1, dose response (AID 588763). The format is functional.
Assay [7] in a line: viability loss in Vero cells – cytotoxicity control for Vif-APOBEC3G degradation inhibitor project, dose response (AID 1117358). In kind it is functional. Particulars: Vero.
The target of assay [8] is T2, High affinity choline transporter 1 (Homo sapiens, UniProt Q9GZV3).
T2 sequence (Q9GZV3 whole entry): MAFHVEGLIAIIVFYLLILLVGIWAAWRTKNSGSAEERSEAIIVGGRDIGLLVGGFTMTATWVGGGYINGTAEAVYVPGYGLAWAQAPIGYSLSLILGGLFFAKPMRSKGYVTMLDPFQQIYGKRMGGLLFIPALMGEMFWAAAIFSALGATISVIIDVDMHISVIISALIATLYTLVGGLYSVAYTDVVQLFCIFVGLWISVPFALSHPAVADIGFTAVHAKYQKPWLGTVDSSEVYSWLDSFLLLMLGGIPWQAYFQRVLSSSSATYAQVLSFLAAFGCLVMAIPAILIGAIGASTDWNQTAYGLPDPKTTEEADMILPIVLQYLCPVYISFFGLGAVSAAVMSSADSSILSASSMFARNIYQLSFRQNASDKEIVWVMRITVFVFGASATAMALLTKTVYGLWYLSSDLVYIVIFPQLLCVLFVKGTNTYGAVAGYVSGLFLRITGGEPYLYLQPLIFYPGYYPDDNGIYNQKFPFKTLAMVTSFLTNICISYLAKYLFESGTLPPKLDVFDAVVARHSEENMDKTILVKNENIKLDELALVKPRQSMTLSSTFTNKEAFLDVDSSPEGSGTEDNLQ
Kind of assay: human choline transporter blockers, potency – cell-based, 5-point CRC, membrane potential dye, dose response (AID 504840). In kind it is functional.

Assay [9] has as its target T3, CAAX prenyl protease 2 (Homo sapiens, UniProt Q9Y256).
T3 sequence (Q9Y256 whole entry): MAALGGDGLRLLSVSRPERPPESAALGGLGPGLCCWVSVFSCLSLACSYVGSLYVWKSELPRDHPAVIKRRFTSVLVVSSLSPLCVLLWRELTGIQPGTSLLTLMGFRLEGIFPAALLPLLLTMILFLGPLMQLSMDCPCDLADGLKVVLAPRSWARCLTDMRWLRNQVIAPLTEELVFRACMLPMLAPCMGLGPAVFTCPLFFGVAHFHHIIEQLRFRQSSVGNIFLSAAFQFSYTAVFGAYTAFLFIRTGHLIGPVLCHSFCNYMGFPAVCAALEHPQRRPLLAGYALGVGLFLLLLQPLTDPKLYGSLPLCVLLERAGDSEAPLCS
Briefly: inhibition of Ras-converting CAAX protease Rce1 – biochemical, yeast membranes, quenched-peptide fluorescence, cherry-pick, dose response (AID 588849).

Assay [10] addresses G-protein coupled receptor 55 (Homo sapiens, UniProt Q9Y2T6). Kind of assay: selective activators of receptor GPR55 – imaging, U2OS cells, beta-arrestin-GFP redistribution, primary screen (AID 1961). The format is functional.
Assay [11] has as its target T4, CAAX prenyl protease 2 (Saccharomyces cerevisiae S288c, UniProt Q03530).
T4 sequence (Q03530 whole entry): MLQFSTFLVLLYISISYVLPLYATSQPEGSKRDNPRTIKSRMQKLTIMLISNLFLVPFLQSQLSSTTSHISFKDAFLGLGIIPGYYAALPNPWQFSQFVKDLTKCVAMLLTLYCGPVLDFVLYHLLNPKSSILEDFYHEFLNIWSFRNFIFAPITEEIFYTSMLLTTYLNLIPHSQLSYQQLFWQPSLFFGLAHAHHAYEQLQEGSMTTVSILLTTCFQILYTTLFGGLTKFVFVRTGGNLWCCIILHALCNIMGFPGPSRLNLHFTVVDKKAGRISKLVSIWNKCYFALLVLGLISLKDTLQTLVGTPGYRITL
The format is biochemical.

In the next assay the test system is HEK293. Briefly: cells. The format is functional, cell-based. Particulars: Homo sapiens.
A short description of assay [12]: viability of uninfected HEp-2 cells – cell-based, HTS, cytotoxicity control for RSV inhibitor project, dose response (AID 2410). In kind it is functional. Particulars: human respiratory syncytial virus.
Assay [13] addresses T5, Nuclear receptor subfamily 0 group B member 1 (Homo sapiens, UniProt P51843).
T5 sequence (P51843 whole entry): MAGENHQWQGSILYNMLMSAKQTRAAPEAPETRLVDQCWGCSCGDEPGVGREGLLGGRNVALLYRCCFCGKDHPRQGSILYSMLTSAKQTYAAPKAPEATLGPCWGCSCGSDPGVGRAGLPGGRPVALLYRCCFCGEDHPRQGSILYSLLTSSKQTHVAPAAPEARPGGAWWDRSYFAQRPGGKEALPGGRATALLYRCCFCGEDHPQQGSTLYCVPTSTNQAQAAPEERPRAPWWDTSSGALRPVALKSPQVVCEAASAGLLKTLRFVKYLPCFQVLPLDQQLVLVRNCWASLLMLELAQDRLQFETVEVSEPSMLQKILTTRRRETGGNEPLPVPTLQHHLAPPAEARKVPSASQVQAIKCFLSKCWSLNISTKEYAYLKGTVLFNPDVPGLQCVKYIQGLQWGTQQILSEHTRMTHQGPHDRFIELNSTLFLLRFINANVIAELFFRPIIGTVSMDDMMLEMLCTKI
Briefly: Luminescence-based cell-based high throughput dose response assay for inhibitors of the orphan nuclear receptor subfamily 0, group B, member 1 (DAX1; NR0B1). [Related pubchem assays (depositor defined):AID504766, AID504790]. In kind it is functional.

For assay [14], the target named is Eukaryotic translation initiation factor 4E (Mus musculus, UniProt P63073). Briefly: blockers of eIF4G binding by eIF4E – biochemical, TR-FRET, dose response (AID 855).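 Also: potency for disrupting eIF4E binding to eIF4GI seen as loss of FRET.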 The format is functional. For orientation: TR-FRET usually uses a lanthanide donor and a delayed reading to cut background.
The target of assay [15] is T6, Heat shock factor protein 1 (Mus musculus, UniProt P38532).
T6 sequence (P38532 whole entry): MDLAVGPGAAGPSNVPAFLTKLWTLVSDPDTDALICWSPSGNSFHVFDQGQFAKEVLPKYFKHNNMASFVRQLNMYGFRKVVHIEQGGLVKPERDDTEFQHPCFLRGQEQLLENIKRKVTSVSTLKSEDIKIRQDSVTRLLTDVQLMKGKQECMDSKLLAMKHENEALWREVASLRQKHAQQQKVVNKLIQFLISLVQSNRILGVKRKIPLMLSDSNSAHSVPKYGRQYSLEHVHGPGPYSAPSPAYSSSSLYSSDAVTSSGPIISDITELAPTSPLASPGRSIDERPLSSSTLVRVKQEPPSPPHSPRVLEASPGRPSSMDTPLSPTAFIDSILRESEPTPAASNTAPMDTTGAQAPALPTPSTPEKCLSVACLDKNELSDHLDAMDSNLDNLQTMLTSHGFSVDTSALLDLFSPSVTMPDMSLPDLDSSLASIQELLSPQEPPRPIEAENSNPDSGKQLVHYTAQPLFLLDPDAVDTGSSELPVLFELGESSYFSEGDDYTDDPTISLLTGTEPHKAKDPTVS
Kind of assay: enhancement of HSF1-driven luciferase signal – cell-based, NIH3T3, luminescence, dose retest, confirmation (AID 435004).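 Also: stress induced by proteasome inhibitor MG132 added 30 min after compound; luciferase reporter driven by HSF1 response element in NIH3T3 cells; actives raise luminescence as potentiators of the MG132 stress response.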 The format is functional.

The source made the active and inactive calls.

The values below come from ChEMBL document CHEMBL1201862, “PubChem BioAssay data set” (2004).

Chain of Beta-galactosidase (Q8VNN2 whole entry): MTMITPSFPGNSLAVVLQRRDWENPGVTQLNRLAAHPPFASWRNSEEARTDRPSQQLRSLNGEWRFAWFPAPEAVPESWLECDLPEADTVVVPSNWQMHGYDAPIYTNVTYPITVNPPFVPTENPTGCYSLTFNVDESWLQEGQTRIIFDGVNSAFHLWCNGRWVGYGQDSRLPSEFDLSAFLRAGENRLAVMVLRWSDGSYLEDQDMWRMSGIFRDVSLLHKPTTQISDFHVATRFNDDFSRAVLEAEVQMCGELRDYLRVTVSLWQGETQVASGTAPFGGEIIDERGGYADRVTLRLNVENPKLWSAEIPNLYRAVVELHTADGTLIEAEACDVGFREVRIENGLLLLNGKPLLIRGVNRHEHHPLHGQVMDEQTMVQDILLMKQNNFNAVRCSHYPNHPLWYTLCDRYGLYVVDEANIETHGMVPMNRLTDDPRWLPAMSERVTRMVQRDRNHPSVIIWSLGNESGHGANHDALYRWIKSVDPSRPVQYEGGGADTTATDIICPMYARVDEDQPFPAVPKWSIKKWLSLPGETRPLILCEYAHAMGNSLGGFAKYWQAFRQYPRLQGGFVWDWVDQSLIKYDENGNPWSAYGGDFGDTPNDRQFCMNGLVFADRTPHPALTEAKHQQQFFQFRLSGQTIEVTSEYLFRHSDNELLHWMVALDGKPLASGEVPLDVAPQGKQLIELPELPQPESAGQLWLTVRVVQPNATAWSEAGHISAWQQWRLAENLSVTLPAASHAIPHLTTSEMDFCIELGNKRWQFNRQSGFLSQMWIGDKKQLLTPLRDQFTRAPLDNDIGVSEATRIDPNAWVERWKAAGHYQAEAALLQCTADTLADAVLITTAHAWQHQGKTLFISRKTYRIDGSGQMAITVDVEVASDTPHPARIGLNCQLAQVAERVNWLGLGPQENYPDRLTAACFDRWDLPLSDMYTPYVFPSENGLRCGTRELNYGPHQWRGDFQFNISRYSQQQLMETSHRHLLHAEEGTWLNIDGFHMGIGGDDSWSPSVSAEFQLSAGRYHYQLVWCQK
Chain of Beta-2 adrenergic receptor (P07550 whole entry): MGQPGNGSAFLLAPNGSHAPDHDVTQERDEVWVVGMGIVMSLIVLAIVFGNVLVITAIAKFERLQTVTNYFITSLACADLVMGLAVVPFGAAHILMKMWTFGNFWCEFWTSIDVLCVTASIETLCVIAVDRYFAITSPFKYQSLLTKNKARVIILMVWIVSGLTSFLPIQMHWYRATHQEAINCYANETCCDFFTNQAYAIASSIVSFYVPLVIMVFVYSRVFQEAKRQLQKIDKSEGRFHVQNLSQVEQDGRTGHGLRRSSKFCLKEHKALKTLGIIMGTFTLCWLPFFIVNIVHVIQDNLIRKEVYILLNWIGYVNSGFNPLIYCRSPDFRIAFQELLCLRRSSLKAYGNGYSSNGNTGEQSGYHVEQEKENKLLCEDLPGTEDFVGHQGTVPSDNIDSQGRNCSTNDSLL
Chain of Eukaryotic translation initiation factor 4E (P63073 whole entry): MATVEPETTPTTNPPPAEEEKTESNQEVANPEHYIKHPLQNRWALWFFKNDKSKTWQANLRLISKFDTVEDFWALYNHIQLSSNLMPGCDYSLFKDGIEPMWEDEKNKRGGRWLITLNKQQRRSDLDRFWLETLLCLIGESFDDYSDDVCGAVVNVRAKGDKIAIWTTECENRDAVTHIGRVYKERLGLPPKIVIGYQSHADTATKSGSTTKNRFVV
Chain of DNA dC->dU-editing enzyme APOBEC-3G (Q9HC16 whole entry): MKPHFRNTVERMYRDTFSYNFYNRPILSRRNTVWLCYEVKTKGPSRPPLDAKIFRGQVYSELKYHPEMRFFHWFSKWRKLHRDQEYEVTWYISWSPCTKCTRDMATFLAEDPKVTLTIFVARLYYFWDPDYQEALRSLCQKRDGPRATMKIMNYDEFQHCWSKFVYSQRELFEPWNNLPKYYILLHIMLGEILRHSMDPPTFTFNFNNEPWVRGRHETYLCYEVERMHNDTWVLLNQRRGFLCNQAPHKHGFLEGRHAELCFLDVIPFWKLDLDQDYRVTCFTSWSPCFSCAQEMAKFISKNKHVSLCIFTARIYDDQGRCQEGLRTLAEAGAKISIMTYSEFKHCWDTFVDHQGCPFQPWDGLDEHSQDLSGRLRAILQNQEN
Chain of G-protein coupled receptor 55 (Q9Y2T6 whole entry): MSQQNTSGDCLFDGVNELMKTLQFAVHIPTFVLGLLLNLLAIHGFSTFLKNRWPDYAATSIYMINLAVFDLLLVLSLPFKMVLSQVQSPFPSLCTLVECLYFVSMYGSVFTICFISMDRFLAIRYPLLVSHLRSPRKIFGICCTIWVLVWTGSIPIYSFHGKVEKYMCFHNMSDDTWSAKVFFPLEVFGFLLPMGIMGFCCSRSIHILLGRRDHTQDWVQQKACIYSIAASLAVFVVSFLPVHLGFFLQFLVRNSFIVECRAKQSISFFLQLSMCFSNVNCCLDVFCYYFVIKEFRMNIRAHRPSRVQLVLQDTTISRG

Regarding `O=C(Nc1nc(-c2ccccn2)cs1)Nc1ccc(F)cc1F`, the EC50 (in general, the concentration needed to bring the measured effect to its halfway point) at Beta-galactosidase was > 40 µM (inactive); in assay [1] it was 8.78 µM (active); in assay [2] it was 1.16 µM (active); in the assay with Streptococcus, 2.33 µM (active); in assay [5] it was 0.9 µM (active). The half-inhibitory concentration (IC50) (as a rule, the concentration that inhibits the measured activity by half) in assay [3] is 18.8 µM (active); in assay [4], 65.9 µM (active). The AC50 (commonly the concentration at which the activity in the assay is half-maximal) with INS1 was 3.4 µM (active).

In the case of `Cc1c(C(=O)N2CCc3ccccc3C2)oc2ccc(S(=O)(=O)N3CCCCCC3)cc12`, the concentration for a half-maximal effect (EC50) in assay [6] was 1.46 µM (active).

As for `Cc1cccc2c1NC(=O)C2=Nc1ccc(Cl)cc1`, the EC50 on Beta-galactosidase was > 40 µM (inactive). Moreover, the IC50 in assay [3] is listed as 27.9 µM (not active).

On to `CN1CCN(S(=O)(=O)c2ccc(NC(=O)Nc3cccc(Cl)c3)cc2)CC1`, for which the half-maximal cytotoxic concentration (CC50) (usually the concentration that lowers cell viability or growth by half) in assay [7] was > 40 µM (active). Moreover, the IC50 in assay [8] is 13.2 µM (active).

As for `O=C(NC1(Cc2ccc(O)cc2)CCCCC1)c1ccccc1`, the EC50 in [6] was 7.42 µM (active).

With `CNS(=O)(=O)c1cccc(C(=O)OCC(=O)c2ccc(S(=O)(=O)N3CCCCC3)cc2)c1`, the EC50 at Beta-galactosidase was > 40 µM (inactive). In [3], the 50% inhibitory concentration (IC50) was 18.8 µM (active).

On to `CCc1ccc(Nc2n[n+](-c3ccccc3)c(/C=C/c3ccccc3)s2)cc1`, for which the half-maximal activity concentration (AC50) on CAAX prenyl protease 2 [9] is 23.8 µM (active); at CAAX prenyl protease 2 [11], 0.634 µM (active). Further, the EC50 in assay [10] is 1.59 µM (active).

As for `N#C/C(=C/c1ccc(-c2cc([N+](=O)[O-])ccc2Cl)o1)C(N)=O`, the IC50 (with HEK293; in assay [13]) was > 67.6 µM (inactive) each time. In assay [12], the cytotoxic concentration (CC50) was 16.6 µM (active).

In the case of `CCCCN(C)C(=O)Cn1nc(Cc2ccncc2)c2ccccc2c1=O`, the IC50 (in the assay with HEK293; in assay [13]) was > 67.5 µM (inactive) in each case.

As for `Cc1[nH]c2ccccc2c1/C=N/NC(=O)c1cccc(F)c1`, the IC50 (with HEK293; in assay [13]) was > 67.5 µM (inactive) in each case.

On to `CC(/C=N\NC(=O)CN1CCN(S(=O)(=O)c2ccc(C)cc2)CC1)=C\c1ccccc1`, for which the AC50 on CAAX prenyl protease 2 [9] is 59.3 µM (active); on CAAX prenyl protease 2 [11], 4.3 µM (active). The IC50 in assay [14] is > 64 µM (inactive).

`CCOC(=O)C(=Cc1c[nH]c2ccc(S(=O)(=O)N(C)C)cc12)C(=O)OCC`: in [15], the EC50 was 45.3 µM (active). The 50% cytotoxic concentration (CC50) in [12] was 13.4 µM (active). Besides, the half-inhibitory concentration (IC50) in assay [8] was 15.8 µM (active).
